Our source for the IC50 values is paper PMC13011345, “Computational and experimental identification of potential neutralizing peptides derived from human ACE2 against SARS-CoV-2 infection” (Journal of Virology, 2026).

Ends that are not written are not given here.

For this experiment, the system named is pseudotyped SARS-CoV-2 particle (VSV-SARS-CoV-2-S virus, Wuhan-Hu-1 spike) infecting BHK21-hACE2 cells. As to conditions: 1 h.
The IC50 is the concentration that inhibits the measured activity by half. In turn, HIQYDMAYAAQPFLLRNG [ACE378–395] had an IC50 of 3.8 nM.

The sequence QKLFNMLRLGKS [ACE552–563] displayed an IC50 of 12.5 nM.

In turn, LPNMTQGFWENSML [ACE320–333] gave an IC50 of 43.9 nM.

AWDLGKGDFRIL [ACE348–359] had an IC50 of 31.2 nM.
